Results from PubChem BioAssay AID602210 (Sanford-Burnham Center for Chemical Genomics, 2012).
Activity calls are given as the source filed them. No rule for the calls is given here.

Experiment: H9c2 cardiomyoblast viability modulators under 2-DG – cell-based, ATPlite luminescence, rat, set 2, myocardial damage modulator project, dose response (AID 602210)
Settings: H9c2 rat cardiomyoblasts, 2-deoxyglucose-induced death, 2 h

| Compound | IC50 |
| --- | --- |
| Cn1c(-n2c(CCCN3C(=O)c4ccccc4C3=O)nc3ccccc3c2=O)nc2ccccc21 | > 79 µM (inactive) |
| CC(C)CCN(C(=O)CNC(=O)c1ccco1)C(C(=O)NC1CCCCC1)c1ccco1 (centres undefined) | > 79 µM (inactive) |
| COc1cc(/C=c2\s/c(=C(/C#N)C(=O)N3CCCC3)n(-c3ccccc3)c2=O)ccc1O | > 79 µM (inactive) |
| COc1cccc(OC)c1C(=O)Nc1cc(C)nn1-c1nc2ccccc2[nH]1 | 4.52 µM |
| Cc1nn(C)cc1C(C(=O)NC1CCCCC1)N(C(=O)Cc1cccs1)c1ccc(Cl)cc1 (centres undefined) | 29.8 µM (inactive) |
| COc1ccc(N(CC(=O)N/N=C/c2cccs2)S(=O)(=O)c2ccc(OC)c(OC)c2)cc1 | 28 µM (inactive) |
| COc1cc2c(C#CCCO)c(-c3ccsc3)oc(=O)c2cc1OC | 6.34 µM |
| Cc1ccccc1NP(=O)(Oc1ccccc1F)Oc1ccccc1F | > 79 µM (inactive) |
| CC1(C)Oc2ccc3ccc(=O)oc3c2/C(=C/Nc2ccccn2)C1=O | 12.4 µM (inactive) |
| Cc1cc(C)c(S(=O)(=O)N2CCN(C(=O)c3cc(=O)[nH]c4ccccc34)CC2)c(C)c1 | 20 µM (inactive) |
| CCn1c(=O)cc(OCC(=O)Nc2ccccc2C#N)c2ccccc21 | 43.9 µM (inactive) |
| CCn1cc(C(=O)Nc2cccc(NC(C)=O)c2)c2cc(OC)c(OC)cc2c1=O | 39.1 µM (inactive) |
| O=C(NCCN1CCN(c2ccccc2F)CC1)c1cccn2c(=O)c3ccccc3nc12 | 11.7 µM (inactive) |
| COc1ccc(OCC(O)Cn2c(Br)nc3c2c(=O)[nH]c(=O)n3C)cc1 (centres undefined) | 38.1 µM (inactive) |
| Cc1ccc(NC(=O)c2cc(-c3cccs3)nc3ccccc23)nc1 | > 79 µM (inactive) |
| COc1ccc(COc2cc(-c3cccc(OC)c3)nc3ccc(NC(=O)c4cccnc4)cc23)cc1 | 3.51 µM |
| CNC(=O)c1cccc(NC(=O)c2cc(-c3ccccc3)nc3c2cnn3C(C)C)c1 | 14.3 µM (inactive) |
| O=C(Nc1cccc2cccnc12)c1ccc2sc([C@H]3C[C@H](O)[C@@H](CO)O3)nc2c1 | 24.3 µM (inactive) |
| Cc1[nH]c2ccccc2c1/C=N/NC(=O)c1cc(-c2cccs2)[nH]n1 | 5.8 µM |
| CN(C)C(=O)/C=C\c1cn(-c2ccccc2)nc1-c1ccc2c(c1)OCCO2 | 29.4 µM (inactive) |
| COc1ccccc1OCC(=O)N/N=C/c1cccc2cccnc12 | > 79 µM (inactive) |
| COC(=O)/C(=C(O)\C=C\c1ccccc1[N+](=O)[O-])c1nc2ccccc2[nH]1 | 13.5 µM (inactive) |
| CCOC(=O)c1cc2c(=O)n3ccccc3nc2n(Cc2ccco2)c1=NC(=O)c1cccnc1 | 23 µM (inactive) |

| Compound | IC50 |
| --- | --- |
| COc1cc(-c2cc3nc(NCCOc4ccccc4)ccn3n2)cc(OC)c1OC | 15.8 µM (inactive) |
| CCOCCn1ccc2c(OCC(=O)Nc3cc(OC)ccc3OC)cccc2c1=O | > 79 µM (inactive) |
| CCn1c(SCC(=O)Nc2ccccc2N2CCCCC2)nc2c1c(=O)n(C)c(=O)n2C | 16.4 µM (inactive) |
| COc1cc(NC(=O)c2cc3c(C)nc4ccccc4c3o2)cc(OC)c1OC | 11.2 µM (inactive) |
| O=C(CSc1ccc2nnc(-c3ccc(F)cc3)n2n1)N1CCCc2ccccc21 | 16.8 µM (inactive) |
| O=C(NCC(=O)N(Cc1cccs1)C(C(=O)NC1CCCCC1)c1ccco1)c1cccs1 (centres undefined) | 17 µM (inactive) |
| O=C(CN1C(=O)C2CC=CCC2C1=O)Nc1nc(-c2ccc(F)cc2)cs1 (centres undefined) | > 79 µM (inactive) |
| CC(=O)c1ccc(N2CCN(C(=O)c3cc(-c4cccnc4)nc4ccc(Br)cc34)CC2)cc1 | 15.7 µM (inactive) |
| COc1cc(OC)cc(-c2cc3nc(C)c(CCC(=O)Nc4nc(C)cs4)c(C)n3n2)c1 | 6.24 µM |
| COc1cc(C(=O)N/N=C/c2ccc(OC(=O)c3ccccc3)c(OC)c2)ccc1O | 14.8 µM (inactive) |
| COc1cccc(CN(C)C(=O)C(Cc2ccccc2)NC(=O)c2ccccc2)c1OC (centres undefined) | 20.8 µM (inactive) |
| COc1cc(NC(=O)c2cc([N+](=O)[O-])ccc2NC(=O)CN2CCN(c3ccccn3)CC2)cc(OC)c1 | > 79 µM (inactive) |
| CCOC(=O)c1ccc(-c2ccc(/C=C(\C#N)C(=O)NCC3CCCO3)o2)cc1 (centres undefined) | > 79 µM (inactive) |
| COc1ccc(-c2csc(NC(=O)c3cccc(N4C(=O)CCC4=O)c3)n2)cc1OC | 13.1 µM (inactive) |
| CC(C)(C)NC(=O)c1cc(NC(=O)c2cccs2)cc(NC(=O)c2cccs2)c1 | 15.7 µM (inactive) |
| Cc1ccc(-c2csc(N3CCC[C@@H]3C(=O)NCCn3c(-c4ccncc4)nc4ccccc43)n2)cc1 | 8.85 µM |
| COc1ccc(OC)c(NC(=O)COC(=O)c2c3c(nc4ccccc24)CCCC3)c1 | 7.78 µM |
| COC(=O)c1ccc(C(=O)OC)c(NC(=O)COC(=O)C23CC4CC(CC(O)(C4)C2)C3)c1 | 10.5 µM (inactive) |
| O=C(NCCN1CCOCC1)c1cnn2c(-c3ccccc3)cc(-c3ccccc3)nc12 | 30.8 µM (inactive) |
| N#C/C(=C\c1cn(-c2ccccc2)nc1-c1cccnc1)c1nnc2n1CCCCC2 | 30.2 µM (inactive) |
| CC(=O)Nc1cccc(-c2cc(NC(C)=O)c3ncc(-c4cccc(C(C)=O)c4)n3c2)c1 | 13.1 µM (inactive) |
| Cc1cc(NC(=O)c2cccs2)cc(-c2nc3ncccc3o2)c1O | > 79 µM (inactive) |
| CCOC(=O)c1c2c3c(cccc3n(C)c1=O)C(=O)c1ccccc1-2 | 15.8 µM (inactive) |

| Compound | IC50 |
| --- | --- |
| CS(=O)(=O)Nc1cccc(NC(=O)c2cccc3c(-c4cccc(C(N)=O)c4)coc23)c1 | 5.97 µM |
| Cc1ccc(CN(C(=O)CNC(=O)c2cccs2)C(C(=O)NCC2CCCO2)c2ccccc2)cc1 (centres undefined) | 19.1 µM (inactive) |
| O=C(NCC(=O)N(Cc1cccs1)C(C(=O)NC1CCCCC1)c1ccco1)c1ccco1 (centres undefined) | 18.5 µM (inactive) |
| COc1ccc2oc(C(=O)Nc3ccc(N4CCOCC4)cc3)c(C)c2c1 | > 79 µM (inactive) |
| COc1cc(-c2cnc3c(NC=O)cc(-c4cccnc4)cn23)cc(OC)c1OC | 36.2 µM (inactive) |
| Nc1cc2[nH]c(=O)c3ccccc3c2cc1[N+](=O)[O-] | 24.4 µM (inactive) |
| O=C1OCCN1C(=O)[C@H]1[C@H](c2ccc([N+](=O)[O-])cc2)C(c2ccc(F)cc2)=NN1c1ccc(Br)cc1 | 8.93 µM |
| C[C@H](CO)N1C[C@H](C)[C@@H](CN(C)S(=O)(=O)c2ccc(F)cc2)Oc2ccc(NC(=O)Nc3ccc4c(c3)OCO4)cc2C1=O | 48.8 µM (inactive) |
| c1cc2[nH]snc2c2nc(C3CC3)nc12 | 10.6 µM (inactive) |
| O=c1oc2ccc3ccccc3c2cc1-c1nnc(-c2ccccc2)o1 | > 79 µM (inactive) |
| Cc1ccc(-c2nnc(NCc3nc4ccccc4[nH]3)c3ccccc23)cc1S(=O)(=O)N1CCOCC1 | 11.3 µM (inactive) |
| O=C(COC(=O)c1cc(-c2cccnc2)nc2ccccc12)Nc1ccc(F)cc1F | 32.5 µM (inactive) |
| O=CNc1cc(-c2ccc(C(=O)NC3CC3)cc2)cn2c(-c3ccc(F)c(Cl)c3)cnc12 | 17.2 µM (inactive) |
| O=C(NCCc1c[nH]c2ccccc12)C(=O)NCC(c1ccco1)N1CCN(c2ccccc2F)CC1 (centres undefined) | > 79 µM (inactive) |
| COc1cccc(/C=N/NC(=O)c2nc(-c3ccccc3)cc(-c3ccccc3)n2)c1 | > 79 µM (inactive) |
| CCOc1ncccc1C(=O)Nc1cccc(-c2nc3cccnc3s2)c1 | 7 µM |
| COc1ccc(-c2cc(-c3ccc(O)cc3)nc(N)c2C#N)cc1OC | > 79 µM (inactive) |
| Cc1ccc2nc(-c3ccccc3)cc(C(=O)NNC(=O)c3csc(N4CCOCC4)n3)c2c1 | 12.4 µM (inactive) |
| COc1ccc(CNn2c(-c3cccs3)nc3ccccc3c2=O)cc1OC | 12.9 µM (inactive) |
| COc1ccc(-c2cc(C(=O)NC(C)c3ccccn3)c3ccccc3n2)cc1OC (centres undefined) | 13.4 µM (inactive) |
| O=C(CCCN1C(=O)c2cccc3cccc(c23)C1=O)N1CCN(c2ccccc2O)CC1 | 19.5 µM (inactive) |
| COCc1c(C(=O)Nc2ccc3nc(N4CCOCC4)sc3c2)oc2ccccc12 | 15 µM (inactive) |
| COc1cc(-c2cc(C(=O)Nc3ccccc3N3CCOCC3)c3ccccc3n2)cc(OC)c1OC | 11.2 µM (inactive) |

| Compound | IC50 |
| --- | --- |
| CC(=O)Nc1ccc(S(=O)(=O)N(Cc2cccnc2)Cc2cc3ccccc3[nH]c2=O)cc1 | 5.82 µM |
| CC(=O)c1ccc(-c2cnc3c(NC=O)cc(-c4cccc(NS(C)(=O)=O)c4)cn23)cc1 | 18 µM (inactive) |
| COC(=O)c1cc(NC(=O)c2cc3ccccc3o2)cc(C(=O)OC)c1 | 23.9 µM (inactive) |
| O=C(c1cc(=O)[nH]c2ccccc12)N1CCN(S(=O)(=O)c2ccc(Cl)cc2)CC1 | 7.15 µM |
| O=C(Nc1ccccc1)c1nc[nH]c1C(=O)NCCCCCCNC(=O)c1[nH]cnc1C(=O)Nc1ccccc1 | 4.44 µM |
| COc1cc(/C=N/NC(=O)c2cccnc2)ccc1OCC(=O)Nc1ccccc1Cl | 7.84 µM |
| COc1cc(-c2cc(NC(C)=O)c3ncc(-c4ccccc4)n3c2)cc(OC)c1OC | > 79 µM (inactive) |
| CSc1nc2ncc3c(n2n1)CC1c2ccccc2CCN1C3=O (centres undefined) | 51.3 µM (inactive) |
| COc1ccc2c(c1OC)C(=O)N1c3ccccc3C(=O)N(c3ccccc3)C21 (centres undefined) | 8.7 µM |
| CCn1nc(C(=O)NNC(=O)c2cc(Cl)ccc2OC)c2ccccc2c1=O | > 79 µM (inactive) |
| O=C(C[C@@H]1C/C=C/CC[C@@H](Cc2ccc(F)cc2)C(=O)O[C@@H](c2ccccc2)CNC1=O)NCCO | 27.5 µM (inactive) |
| CC(=O)c1cccc(-c2cnc3c(NC=O)cc(-c4ccccc4F)cn23)c1 | 17.9 µM (inactive) |
| CCn1c(O)c(/C=N/N=C2CCCCC2)c2cc(C3=NNC(=O)CC3)ccc21 | 21.6 µM (inactive) |
| COC(=O)c1ccc2c(=O)[nH]c(COC(=O)c3[nH]c(C)c(C(C)=O)c3C)nc2c1 | 9.12 µM |
| Cc1cccc(NC(=O)c2nc[nH]c2C(=O)NCCCNC(=O)c2[nH]cnc2C(=O)Nc2cccc(C)c2)c1 | > 79 µM (inactive) |
| COc1cc(OC)cc(C(=O)Nc2ccc(C(=O)Nc3ccccc3OC)cc2)c1 | 16.6 µM (inactive) |
| COc1nc(N/N=C/c2cc3c(cc2Br)OCO3)nc(N2CCOCC2)n1 | 17.4 µM (inactive) |
| CCCNC(=O)c1c(N)n(-c2cccc(OC)c2)c2nc3ccccc3nc12 | 14.9 µM (inactive) |
| NC(=O)c1nsc(C(=O)N(c2ccccc2)C(C(=O)NCc2ccc(F)cc2)c2ccc(O)cc2)c1N (centres undefined) | 9.29 µM |
| O=c1[nH]c(CSc2nnc(-c3cccnc3)n2C2CCCCC2)nc2ccccc12 | > 79 µM (inactive) |
